In patent publication US20230257396A1, “MACROCYCLES AND THEIR USE” (BLOSSOMHILL THERAPEUTICS, INC., priority 2020, published 2023):

Experiments:
Experiment in all cases: KINOMEscan kinase binding assay (Eurofins/DiscoveRx), % Ctrl
Conditions in all cases: 1 μM
kinases [1] = molecular target: T1, kinases (Homo sapiens, UniProt P00519, F317I)
T1 construct: purchased Eurofins/DiscoveRx; host or cells: E. coli BL21-derived host (T7 phage display) for most kinases; HEK-293 for the rest
In short: (§1)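 Read-out is qPCR of kinase eluted from ligand-coated streptavidin beads after 1 h room-temperature competition with test compound. Values are % Ctrl at the tested concentration, lower meaning tighter binding.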

kinases [2] = molecular target: T2, kinases (Homo sapiens, UniProt P00519, F317L)
T2 construct: purchased Eurofins/DiscoveRx; host or cells: E. coli BL21-derived host (T7 phage display) for most kinases; HEK-293 for the rest
In short: as §1

kinases [3] = molecular target: T3, kinases (Homo sapiens, UniProt P00519, H396P)
T3 construct: purchased Eurofins/DiscoveRx; host or cells: E. coli BL21-derived host (T7 phage display) for most kinases; HEK-293 for the rest
In short: as §1

kinases [4] = molecular target: T4, kinases (Homo sapiens, UniProt P09619)
T4 construct: purchased Eurofins/DiscoveRx; host or cells: E. coli BL21-derived host (T7 phage display) for most kinases; HEK-293 for the rest
In short: as §1

kinases [5] = molecular target: T5, kinases (Homo sapiens, UniProt P36888, D835H)
T5 construct: purchased Eurofins/DiscoveRx; host or cells: E. coli BL21-derived host (T7 phage display) for most kinases; HEK-293 for the rest
T5 sequence (P36888 27-993 D835H): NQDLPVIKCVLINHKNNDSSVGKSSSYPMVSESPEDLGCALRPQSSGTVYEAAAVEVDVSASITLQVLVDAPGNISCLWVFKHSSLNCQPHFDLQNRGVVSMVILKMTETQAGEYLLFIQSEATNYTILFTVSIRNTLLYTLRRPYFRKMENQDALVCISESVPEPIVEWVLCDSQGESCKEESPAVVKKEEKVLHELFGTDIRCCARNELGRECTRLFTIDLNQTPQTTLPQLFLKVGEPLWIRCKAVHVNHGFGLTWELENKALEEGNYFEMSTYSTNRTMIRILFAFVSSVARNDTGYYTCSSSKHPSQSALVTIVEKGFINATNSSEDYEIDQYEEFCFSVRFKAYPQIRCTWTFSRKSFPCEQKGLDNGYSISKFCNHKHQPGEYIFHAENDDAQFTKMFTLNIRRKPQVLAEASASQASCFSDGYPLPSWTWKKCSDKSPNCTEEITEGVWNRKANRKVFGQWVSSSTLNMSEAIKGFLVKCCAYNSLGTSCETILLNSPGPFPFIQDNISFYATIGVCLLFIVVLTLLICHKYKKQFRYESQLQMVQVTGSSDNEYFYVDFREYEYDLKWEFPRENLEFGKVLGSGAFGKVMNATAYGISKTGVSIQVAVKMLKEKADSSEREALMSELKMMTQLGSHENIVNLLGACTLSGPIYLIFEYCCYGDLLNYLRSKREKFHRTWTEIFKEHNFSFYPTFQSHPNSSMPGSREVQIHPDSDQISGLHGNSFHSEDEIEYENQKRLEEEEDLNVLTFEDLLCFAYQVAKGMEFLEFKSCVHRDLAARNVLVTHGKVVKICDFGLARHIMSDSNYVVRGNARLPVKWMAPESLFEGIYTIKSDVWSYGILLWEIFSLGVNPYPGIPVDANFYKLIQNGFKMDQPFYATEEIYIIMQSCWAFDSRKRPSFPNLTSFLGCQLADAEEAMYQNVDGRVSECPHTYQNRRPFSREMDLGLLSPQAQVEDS
In short: as §1

T4 sequence (P09619 33-1106): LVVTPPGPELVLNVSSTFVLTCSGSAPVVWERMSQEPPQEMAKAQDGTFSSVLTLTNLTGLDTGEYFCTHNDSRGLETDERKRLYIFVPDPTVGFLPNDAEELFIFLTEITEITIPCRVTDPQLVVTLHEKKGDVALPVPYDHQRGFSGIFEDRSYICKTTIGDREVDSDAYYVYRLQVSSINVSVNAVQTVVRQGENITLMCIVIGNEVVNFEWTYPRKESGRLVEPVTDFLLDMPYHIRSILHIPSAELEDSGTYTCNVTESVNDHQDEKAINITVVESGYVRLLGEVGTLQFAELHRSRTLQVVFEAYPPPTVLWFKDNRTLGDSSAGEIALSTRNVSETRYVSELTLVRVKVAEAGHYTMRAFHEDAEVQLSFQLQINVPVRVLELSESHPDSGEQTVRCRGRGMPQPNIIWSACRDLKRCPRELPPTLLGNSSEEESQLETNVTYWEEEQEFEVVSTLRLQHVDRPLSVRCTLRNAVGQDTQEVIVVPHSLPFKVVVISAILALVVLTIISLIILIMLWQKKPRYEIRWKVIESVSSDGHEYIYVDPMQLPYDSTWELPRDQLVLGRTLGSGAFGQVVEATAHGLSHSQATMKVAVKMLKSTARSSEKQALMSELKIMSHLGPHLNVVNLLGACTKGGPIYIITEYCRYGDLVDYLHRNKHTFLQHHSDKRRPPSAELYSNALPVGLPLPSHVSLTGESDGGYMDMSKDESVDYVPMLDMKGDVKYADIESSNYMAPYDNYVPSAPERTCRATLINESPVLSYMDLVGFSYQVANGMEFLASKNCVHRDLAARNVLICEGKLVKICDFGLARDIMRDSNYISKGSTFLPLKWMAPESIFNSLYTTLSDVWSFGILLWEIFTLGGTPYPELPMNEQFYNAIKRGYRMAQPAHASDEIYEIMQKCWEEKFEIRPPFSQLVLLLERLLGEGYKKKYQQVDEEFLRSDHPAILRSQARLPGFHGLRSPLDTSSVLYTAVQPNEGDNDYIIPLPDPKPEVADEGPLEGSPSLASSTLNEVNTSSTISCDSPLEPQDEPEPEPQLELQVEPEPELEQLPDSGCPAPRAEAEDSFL

% Ctrl, ABL1(F317I)-nonphosphorylated (kinases [1]; ABL1(F317I)-nonphosphorylated)	% Ctrl, ABL1(F317I)-phosphorylated (kinases [1]; ABL1(F317I)-phosphorylated)	% Ctrl, ABL1(F317L)-nonphosphorylated (kinases [2]; ABL1(F317L)-nonphosphorylated)	% Ctrl, ABL1(F317L)-phosphorylated (kinases [2]; ABL1(F317L)-phosphorylated)	% Ctrl, ABL1(H396P)-nonphosphorylated (kinases [3]; ABL1(H396P)-nonphosphorylated)	% Ctrl, ABL1(H396P)-phosphorylated (kinases [3]; ABL1(H396P)-phosphorylated)	% Ctrl, PDGFRB (kinases [4]; PDGFRB)	% Ctrl, FLT3(D835H) (kinases [5]; FLT3(D835H))	% Ctrl, ABL1(F317I)-nonphosphorylated (kinases [1]; target ABL1(F317I)-nonphosphorylated)	% Ctrl, ABL1(F317I)-phosphorylated (kinases [1]; target ABL1(F317I)-phosphorylated)	% Ctrl, ABL1(F317L)-nonphosphorylated (kinases [2]; target ABL1(F317L)-nonphosphorylated)	% Ctrl, ABL1(F317L)-phosphorylated (kinases [2]; target ABL1(F317L)-phosphorylated)	% Ctrl, ABL1(H396P)-nonphosphorylated (kinases [3]; target ABL1(H396P)-nonphosphorylated)	% Ctrl, ABL1(H396P)-phosphorylated (kinases [3]; target ABL1(H396P)-phosphorylated)	% Ctrl, PDGFRB (kinases [4]; target PDGFRB)	% Ctrl, FLT3(D835H) (kinases [5]; target FLT3(D835H))	Compound
100 % Ctrl	64 % Ctrl	98 % Ctrl	60 % Ctrl	74 % Ctrl	82 % Ctrl	91 % Ctrl	85 % Ctrl	–	–	–	–	–	–	–	–	Cc1cc2c([nH]1)/C=C1\C(=O)Nc3ccc(cc31)-c1ccnn1CCOCCNC2=O [Ex.39, [19a(20)Z]-2-methyl-6,7,9,10-tetrahydro-1H-15,17-(ethanediylidene)pyrazolo[1,5-d]dipyrrolo[3,4-h:2′,3′-k][1,4,14]oxadiazacyclohexadecine-4,19(5H,18H)-dione]
20 % Ctrl	39 % Ctrl	12 % Ctrl	20 % Ctrl	0.55 % Ctrl	15 % Ctrl	55 % Ctrl	1.2 % Ctrl	–	–	–	–	–	–	–	–	Cc1cc2c([nH]1)/C=C1\C(=O)Nc3ccc(cc31)OCCOCCN(C)C2=O [Ex.91, [16a(17)Z]-2,5-dimethyl-6,7,9,10-tetrahydro-1H-12,14-(ethanediylidene)dipyrrolo[3,2-i:3′,4′-l][1,4,7]dioxazacyclopentadecine-4,16(5H,15H)-dione]
100 % Ctrl	100 % Ctrl	100 % Ctrl	100 % Ctrl	100 % Ctrl	100 % Ctrl	94 % Ctrl	88 % Ctrl	–	–	–	–	–	–	–	–	Cc1cc2c([nH]1)/C=C1\C(=O)Nc3cnc(cc31)-c1cnn(C)c1COCCNC2=O [Ex.123, [3a(4)Z]-6,14-dimethyl-10,11,13,14-tetrahydro-2H-17,1-(azenometheno)pyrazolo[4,3-m]dipyrrolo[3,2-f:3′,4′-i][1,4]oxazacyclopentadecine-3,8(5H,9H)-dione]
54 % Ctrl	75 % Ctrl	26 % Ctrl	53 % Ctrl	6.1 % Ctrl	5 % Ctrl	5.5 % Ctrl	5.2 % Ctrl	–	–	–	–	–	–	–	–	Cc1cc2c([nH]1)/C=C1\C(=O)Nc3ccc(cc31)-c1ccnn1CCOCCN(C)C2=O [Ex. 41, [19a(20)Z]-2,5-dimethyl-6,7,9,10-tetrahydro-1H-15,17-(ethanediylidene)pyrazolo[1,5-d]dipyrrolo[3,4-h:2′,3′-k][1,4,14]oxadiazacyclohexadecine-4,19(5H,18H)-dione]
22 % Ctrl	89 % Ctrl	6.5 % Ctrl	76 % Ctrl	0.3 % Ctrl	46 % Ctrl	71 % Ctrl	32 % Ctrl	–	–	–	–	–	–	–	–	Cc1cc2c([nH]1)/C=C1\C(=O)Nc3ccc(cc31)O[C@@H](C)COCCN(C)C2=O [Ex. 92, [10S,16a(17)Z]-2,5,10-trimethyl-6,7,9,10-tetrahydro-1H-12,14-(ethanediylidene)dipyrrolo[3,2-i:3′,4′-l][1,4,7]dioxazacyclopentadecine-4,16(5H,15H)-dione]
0 % Ctrl	1.5 % Ctrl	0 % Ctrl	0.2 % Ctrl	0.5 % Ctrl	0 % Ctrl	0.35 % Ctrl	0.05 % Ctrl	–	–	–	–	–	–	–	–	Cc1cc2c([nH]1)/C=C1\C(=O)Nc3ccc(cc31)-c1cnn(C)c1COCCN(C)C2=O [Ex. 124, [3a(4)Z]-6,9,14-trimethyl-10,11,13,14-tetrahydro-2H-1,17-(ethanediylidene)pyrazolo[4,3-m]dipyrrolo[3,2-f:3′,4′-i][1,4]oxazacyclopentadecine-3,8(5H,9H)-dione]

Second part, the compound before the results:

Compound	% Ctrl, ABL1(F317I)-nonphosphorylated (kinases [1]; ABL1(F317I)-nonphosphorylated)	% Ctrl, ABL1(F317I)-phosphorylated (kinases [1]; ABL1(F317I)-phosphorylated)	% Ctrl, ABL1(F317L)-nonphosphorylated (kinases [2]; ABL1(F317L)-nonphosphorylated)	% Ctrl, ABL1(F317L)-phosphorylated (kinases [2]; ABL1(F317L)-phosphorylated)	% Ctrl, ABL1(H396P)-nonphosphorylated (kinases [3]; ABL1(H396P)-nonphosphorylated)	% Ctrl, ABL1(H396P)-phosphorylated (kinases [3]; ABL1(H396P)-phosphorylated)	% Ctrl, PDGFRB (kinases [4]; PDGFRB)	% Ctrl, FLT3(D835H) (kinases [5]; FLT3(D835H))	% Ctrl, ABL1(F317I)-nonphosphorylated (kinases [1]; target ABL1(F317I)-nonphosphorylated)	% Ctrl, ABL1(F317I)-phosphorylated (kinases [1]; target ABL1(F317I)-phosphorylated)	% Ctrl, ABL1(F317L)-nonphosphorylated (kinases [2]; target ABL1(F317L)-nonphosphorylated)	% Ctrl, ABL1(F317L)-phosphorylated (kinases [2]; target ABL1(F317L)-phosphorylated)	% Ctrl, ABL1(H396P)-nonphosphorylated (kinases [3]; target ABL1(H396P)-nonphosphorylated)	% Ctrl, ABL1(H396P)-phosphorylated (kinases [3]; target ABL1(H396P)-phosphorylated)	% Ctrl, PDGFRB (kinases [4]; target PDGFRB)	% Ctrl, FLT3(D835H) (kinases [5]; target FLT3(D835H))
Cc1cc2c([nH]1)/C=C1\C(=O)Nc3ccc(nc31)-c1ccccc1OCCCNC2=O [Ex.22, [3a(4)Z]-6-methyl-9,10,11,12-tetrahydro-1,18-(ethanediylidene)dipyrrolo[3,2-g:3′,4′-j][1,5,12]benzoxadiazacyclopentadecine-3,8(2H,5H)-dione]	88 % Ctrl	100 % Ctrl	82 % Ctrl	100 % Ctrl	90 % Ctrl	77 % Ctrl	100 % Ctrl	89 % Ctrl	–	–	–	–	–	–	–	–
Cc1cc2c([nH]1)/C=C1\C(=O)Nc3cnc(nc31)N(C)CCCOCCN(C)C2=O [Ex.71, [17a(18)Z]-2,5,12-trimethyl-6,7,9,10,11,12-hexahydro-1H-13,15-(azenometheno)dipyrrolo[3,2-f:3′,4′-i][1,4,11,13]oxatriazacyclohexadecine-4,17(5H,16H)-dione]	100 % Ctrl	100 % Ctrl	100 % Ctrl	100 % Ctrl	100 % Ctrl	98 % Ctrl	98 % Ctrl	99 % Ctrl	–	–	–	–	–	–	–	–
Cc1cc2c([nH]1)/C=C1\C(=O)Nc3ccc(cc31)CN(C)C(=O)COCCNC2=O [Ex.111, [17a(18)Z]-2,11-dimethyl-6,7,11,12-tetrahydro-1H-13,15-(ethanediylidene)dipyrrolo[3,2-f:3′,4′-i][1,4,14]oxadiazacyclohexadecine-4,10,17(5H,9H,16H)-trione]	89 % Ctrl	100 % Ctrl	87 % Ctrl	100 % Ctrl	62 % Ctrl	61 % Ctrl	88 % Ctrl	20 % Ctrl	–	–	–	–	–	–	–	–
Cc1cc2c([nH]1)/C=C1\C(=O)Nc3ccc(cc31)-c1ccnn1CCNCCNC2=O [Ex. 43, [19a(20)Z]-2-methyl-5,6,7,8,9,10-hexahydro-15,17-(ethanediylidene)pyrazolo[1,5-g]dipyrrolo[3,4-k:2′,3′-n][1,4,7]triazacyclohexadecine-4,19(1H,18H)-dione]	68 % Ctrl	94 % Ctrl	63 % Ctrl	90 % Ctrl	64 % Ctrl	89 % Ctrl	98 % Ctrl	93 % Ctrl	–	–	–	–	–	–	–	–
Cc1cc2c([nH]1)/C=C1\C(=O)Nc3cnc(cc31)-c1cn[nH]c1CNCCN(C)C2=O [Ex. 55, [3a(4)Z]-6,9-dimethyl-9,10,11,12,13,14-hexahydro-17,1-(azenometheno)pyrazolo[4,3-m]dipyrrolo[3,2-f:3′,4′-i][1,4]diazacyclopentadecine-3,8(2,5H)-dione]	–	–	–	–	–	–	–	–	66 % Ctrl	41 % Ctrl	24 % Ctrl	10 % Ctrl	0.8 % Ctrl	3.6 % Ctrl	10 % Ctrl	2.7 % Ctrl
